20 molecules from patent publication US9527889B2, “RFamide-related peptides and methods thereof” (THE REGENTS OF THE UNIVERSITY OF MICHIGAN, priority 2010, dated 2016) can be followed below.

For experiment [1], the system named is isolated adult rat cardiac myocytes. The experiment is classed as cell-based. The following applies: for % Change baseline SL / % Change dep v (shortening rate) / % Change peak h (shortening amplitude) / % Change ret v (re-lengthening rate): 10^−8 M; for ability to bind and affect myocyte contractile function: 10^−8M, individually administered; for character relative to hRFRP-1 on myocyte contractile function (agonist, antagonist, reverse agonist; in words): peptides at 10^−8M or 10^−7M, peak shortening, departure and return velocity. From the text:
Adult rat and rabbit ventricular cardiac myocytes were isolated as previously described (Westfall, M. V. Et al. (1997), Westfall, M. V. and Borton, A. R. (2003)). Hearts from Sprague-Dawley rats and New Zealand white rabbits were perfused and enzymatically digested to isolate myocytes; the protocol was approved by The University of Michigan University Committee on Use and Care of Animals (UCUCA) in accordance with university and federal regulatory guidelines. Aliquots of isolated ventricular myocytes were plated on laminin-coated glass coverslips in serum-containing Dulbecco's Modified Eagle Media (Invitrogen, CA, US) supplemented with 5% fetal bovine serum, and 50 U/ml penicillin and 50 μg/ml streptomycin (pen/strep; Sigma-Aldrich, MO, US). Two hours later, media was replaced with serum-free M199 (Invitrogen) supplemented with 1.8 mM Ca^2+, 10 mM HEPES, 10 mM glutathione, and pen/strep. Rat myocytes were transferred to a stimulation chamber and electrically paced the day after isolation (Zornik, E. Et al. (1999), Westfall, M. V. Et al. (1997)). Media was changed daily for all myocyte preparations.
Sarcomere shortening was detected using a video-based detection system (IonOptix, MA, USA) as described earlier (Westfall, M. V. and Borton, A. R. (2003)). Rat myocytes were paced at 0.2 Hz and rabbit myocytes were paced at 0.5 Hz or 1.0 Hz for these studies. Recordings were made prior to application of each peptide concentration, the protein kinase C (PKC) inhibitor bisindolylmaleimide-1, (bis-1; CalBiochem/EMD, NJ, US), or media only (control, C) and at 1, 3, 5, 10 and 15 minutes after application of peptide, bis-1, or media. Signal averaged data were analyzed to determine resting sarcomere length, shortening amplitude (peak shortening), shortening rate (departure velocity), and re-lengthening rate (return velocity), as previously described (Westfall, M. V. Et al. (1997), Westfall, M. V. and Borton, A. R. (2003)), in 7-20 myocytes from 3-4 rats for each peptide concentration, bis-1, and media.

For a further experiment, the system named is D. melanogaster heart. In kind it is in vivo, Drosophila melanogaster. The following applies: for effect on fly heart rate / contractility (in words): DMS analogs; for heart rate, % of the basal contraction rate: within 1 minute; for EC50: in vivo, maximal effect 1 minute after microinjection, read-out: best-fit EC50, decrease of heart rate. The procedure: D. melanogaster Oregon R wild-type strain flies were maintained on cornmeal molasses media at 24° C. under a 12 hour light/dark cycle. The animals selected for analysis were larvae, prepupae, or adults; both females and males were analyzed and no difference in response was observed. An animal was positioned onto double-stick tape adhered to a microscope stage and heart rate was monitored for 2 minutes before and 10 minutes after saline (control) or peptide was delivered as previously described (Nichols, R. Et al. (1999), Zornik, E. et al. (1999)). A drawn-out micropipette was used to deliver saline or peptide (40 ηl) into the hemolymph (blood) at a site anterior to the brain to avoid tissue damage to the central nervous system and dorsal vessel (aorta and heart). Each animal received only one microinjection of saline or peptide. In some cases, recordings were extended up to 1 hour to establish the return to baseline. Data were averaged from several animals (n≧10) and reported relative to the basal heart rate.
The influence of DMS (Dromyosuppressin peptide; […]amide—SEQ ID NO: 1) on in vivo heart rate in D. melanogaster was compared to physiological saline to evaluate dose-dependent effects of myosuppressin in cardiac function in a model amenable to molecular genetics. […] The dose-dependent effects of dromyosuppressin reported were evaluated in pupae because the animals are immobile and, thus, this developmental stage is the easiest to observe and record heart contractions. The effects of DMS were measured over a range of ten-fold concentrations from 10^−6 M to 10^−11 M and compared to the influence of physiological saline (mean±SEM; 91±3% basal contraction rate at 1 minute; n=18). […] Significant reductions in heart rate were detected in response to DMS concentrations of 10^−9 M and higher, and the peak responses were observed within 1 minute of microinjection of the peptide. The DMS-induced effects typically were observed over 2-3 minutes, and were reversible, returning to approximately basal contraction rate levels in about 5 minutes in response to 10^−8 M and 10^−9 M. At the highest concentrations tested, 10^−6 M and 10^−7 M, DMS decreased heart rate to 25±11% (n=14) and 25±7% (n=16), respectively, within 1 minute. The DMS-induced effects were sustained for 3-5 minutes before they returned to approximately basal contraction rate levels within 30 minutes.

The next experiment relates to Protophormia terraenovae. The experiment is described as follows: Cardiac arrest in intact blowfly (electrocardiograms). In kind it is in vivo. The procedure:
In order to determine the effect of DMS on cardiac arrest in a larger invertebrate various concentrations of DMS were applied to intact Protophormia terraenovae, a blowfly, and electrocardiograms were recorded continuously [Angioy et al. 2007]. […] Signal resumed in animals; the recovery time shortened at lower DMS concentrations.

Like-named read-outs stand apart in the source and are kept apart here. Non-standard residues stand in square brackets, D forms with d. Residues, ends and D or L forms follow the SMILES beside them. No end group written: not given here. *: point of attachment. Bpa = N[C@@H](Cc1ccc(C(=O)c2ccccc2)cc1)C(=O)O; Myristoyl = CCCCCCCCCCCCCC(=O)*

Consider “LAEELSSYSRRKGGFSFRFamide (LAEELSSYSRRKGGFSFRF-NH2) [26RFa(8-26), reference compound]”, for which, in experiment [1] (15 minutes), the “% Change baseline SL” value was −0.04 ± 0.1%, the “% Change dep v (shortening rate)” value is −6.0 ± 4.4%, the “% Change peak h (shortening amplitude)” value is listed as −4.3 ± 5.7% and the “% Change ret v (re-lengthening rate)” value was −7.3 ± 6.3%.

“PKI-(Myr-14-22)-amide (Myristoyl-SGRTGRRNA-NH2; SMILES CCCCCCCCCCCCCC(=O)N[C@@H](CO)C(=O)NCC(=O)N[C@@H](CCCNC(=N)N)C(=O)N[C@H](C(=O)NCC(=O)N[C@@H](CCCNC(=N)N)C(=O)N[C@@H](CCCNC(=N)N)C(=O)N[C@@H](CC(N)=O)C(=O)N[C@@H](C)C(N)=O)[C@@H](C)O; UniProt P61925 14-22, looked up, fragment) [reference compound]”: the “effect of inhibitor on the activity of hRFRP-1” value in experiment [1] (isolated ventricular cardiac myocytes) is “modifies the activity of hRFRP-1”.

On to PQRFamide (PQRF-NH2), for which, in experiment [1], the “ability to bind and affect myocyte contractile function” value (from here on “ability”) is given as “in a manner similar to the parent peptide hRFRP-1”.

Take AFLRFamide (AFLRF-NH2): the “effect on fly heart rate / contractility (in words)” value in the experiment with D. melanogaster heart is “capable of not only binding, but exerting an effect on cardiac contractility”.

In the case of “TDVDHAFLRFamide (TDVDHAFLRF-NH2) [[A6]DMS]”, the “effect on fly heart rate / contractility (in words)” value in the experiment with D. melanogaster heart was “increase heart rate”.

Regarding “TDVDAVFLRFamide (TDVDAVFLRF-NH2) [[A5]DMS]”, the “effect on fly heart rate / contractility (in words)” value in the experiment on D. melanogaster heart is reported as “increase heart rate”.

“[A9]hRFRP-1: parent hRFRP-1 peptide where the 9th amino acid is replaced by an alanyl residue (MPHSFANLALRF-NH2; listed as Homo sapiens)”: in experiment [1] (10^−8M alanine analogs), the “peak shortening (peak h) compared with unsubstituted hRFRP-1” value is recorded as “significantly different” and the “relaxation (ret v) compared with unsubstituted hRFRP-1” value is on record as “significantly different”.

As a reminder, the EC50 is the midpoint of the concentration-response curve. `CC(C)C[C@H](NC(=O)[C@H](Cc1ccccc1)NC(=O)[C@@H](NC(=O)[C@H](Cc1c[nH]cn1)NC(=O)[C@H](CC(=O)O)NC(=O)[C@@H](NC(=O)[C@H](CC(=O)O)NC(=O)[C@@H](N)[C@@H](C)O)C(C)C)C(C)C)C(=O)N[C@@H](CCCNC(=N)N)C(=O)N[C@@H](Cc1ccccc1)C(N)=O` [DMS] (H-TDVDHVFLRF-NH2; N-terminus assumed): the “time effects were sustained” value with D. melanogaster heart (10^−6 M and 10^−7 M) fell in the range of 3 to 5 min. The “time to return to approximately basal contraction rate” value with D. melanogaster heart (10^−6 M and 10^−7 M) is not above 30 min; in the experiment on D. melanogaster heart (10^−8 M and 10^−9 M), “about 5 minutes”. Moreover, the “heart rate, % of the basal contraction rate” value in the experiment with D. melanogaster heart (10^−6 M, pupae) was 25±11%; in the experiment on D. melanogaster heart (10^−7 M, pupae) it was 25±7%; in the experiment on D. melanogaster heart (10^−10 M, pupae), 77±4%. Besides, in the experiment with D. melanogaster heart (after microinjection, pupae), the “time to maximal effect on heart rate” value is not above 1 min. For the same molecule, the EC50 in the experiment on D. melanogaster heart came out at 3 nM. The “responses on heart contractions in larvae and in adults” value with D. melanogaster heart (similar range of concentrations, larvae and adults) was “less robust but significant responses”. The “time over which effects were observed” value with D. melanogaster heart (typical, 10^−8 M and 10^−9 M) is 2 to 3 min. Moreover, the “animals with cardiac arrest” value in the experiment on Protophormia terraenovae (10 μM, 1 μM, and 0.1 ηM, n=10 at each concentration) is on record as 100%; with Protophormia terraenovae (lower concentrations), approximately 50%.

Take LPLRFamide (LPLRF-NH2): the “ability” value in experiment [1] is given as “in a manner similar to the parent peptide hRFRP-1”.

Regarding `CN(C)CCCn1cc(C2=C(c3c[nH]c4ccccc34)C(=O)NC2=O)c2ccccc21` [bis-1, bisindolylmaleimide-1, reference compound], the “effect of inhibitor on the influence of 10^−8 M hRFRP-1 on shortening amplitude, shortening and re-lengthening rates” value in experiment [1] (500 ηM inhibitor, 15 minutes) is “largely blocked”.

For “VPHSAANLPLRFamide (VPHSAANLPLRF-NH2; listed as Rattus norvegicus) [rRFRP-1]”, in experiment [1] (15 minutes), the “% Change baseline SL” value is listed as −0.3 ± 0.1%, the “% Change dep v (shortening rate)” value is on record as −22.1±6.0%, the “% Change peak h (shortening amplitude)” value is listed as −17.7±4.3% and the “% Change ret v (re-lengthening rate)” value was −25.5±3.9%.

Turning to YMPIISFANLPLRF-NH2 [Y-hRFRP-1], the “character relative to hRFRP-1 on myocyte contractile function (agonist, antagonist, reverse agonist; in words)” value in experiment [1] is listed as “hRFRP-1 agonist”.

In the case of `CC(C)C[C@H](NC(=O)[C@H](Cc1ccccc1)NC(=O)[C@@H](NC(=O)[C@H](Cc1c[nH]cn1)NC(=O)[C@H](CC(=O)O)NC(=O)[C@@H](NC(=O)[C@H](Cc1ccc(C(=O)c2ccccc2)cc1)NC(=O)[C@@H](NC(=O)[C@@H](N)Cc1ccc(O)cc1)[C@@H](C)O)C(C)C)C(C)C)C(=O)N[C@@H](CCCNC(=N)N)C(=O)N[C@@H](Cc1ccccc1)C(N)=O` [Y-[Bpa2]DMS] (H-YT[Bpa]VDHVFLRF-NH2; N-terminus assumed), the EC50 in the experiment with D. melanogaster heart was 0.13 nM.

Consider VFLRFamide (VFLRF-NH2), for which, in the experiment with D. melanogaster heart, the “effect on fly heart rate / contractility (in words)” value is “capable of not only binding, but exerting an effect on cardiac contractility”.

Consider PHSFANLPLRFamide (PHSFANLPLRF-NH2), for which the “character relative to hRFRP-1 on myocyte contractile function (agonist, antagonist, reverse agonist; in words)” value in experiment [1] is on record as “super-agonist”.

For “MP(Bpa)SFANLPLRFamide (MP[Bpa]SFANLPLRF-NH2; N-terminus assumed; SMILES CSCC[C@H](N)C(=O)N1CCC[C@H]1C(=O)N[C@@H](Cc1ccc(C(=O)c2ccccc2)cc1)C(=O)N[C@@H](CO)C(=O)N[C@@H](Cc1ccccc1)C(=O)N[C@@H](C)C(=O)N[C@@H](CC(N)=O)C(=O)N[C@@H](CC(C)C)C(=O)N1CCC[C@H]1C(=O)N[C@@H](CC(C)C)C(=O)N[C@@H](CCCNC(=N)N)C(=O)N[C@@H](Cc1ccccc1)C(N)=O) [[Bpa3]hRFRP-1]”, in experiment [1], the “character relative to hRFRP-1 on myocyte contractile function (agonist, antagonist, reverse agonist; in words)” value is listed as “increases cardiac function”.

With FLRFamide (FLRF-NH2), in the experiment with D. melanogaster heart, the “effect on fly heart rate / contractility (in words)” value is on record as “DMS antagonist”.

Take VDHVFLRFamide (VDHVFLRF-NH2): the “effect on fly heart rate / contractility (in words)” value in the experiment on D. melanogaster heart was “activity similar to the parent DMS peptide”.

Consider FANLPLRFamide (FANLPLRF-NH2), for which, in experiment [1], the “ability” value is on record as “in a manner similar to the parent peptide hRFRP-1”.

Take “KGGFSFRFamide (KGGFSFRF-NH2; listed as Rattus norvegicus) [26RFa(19-26), reference compound]”: in experiment [1] (15 minutes), the “% Change baseline SL” value is −0.4 ± 0.2%, the “% Change dep v (shortening rate)” value is −5.3 ± 5.6%, the “% Change peak h (shortening amplitude)” value is −7.7 ± 4.8% and the “% Change ret v (re-lengthening rate)” value is given as −8.1 ± 5.0%.
